{
  "source": "patent US11890288B2",
  "about": "“Sulfonamide or sulfinamide compound having effect of inducing BRD4 protein degradation and pharmaceutical use thereof” (MITSUBISHI TANABE PHARMA CORPORATION, priority 2020, dated 2024)",
  "key": {"[1]": {"tested_on": "human EGFRT790M mutation-positive non-small cell lung cancer NCI-H1975 cell", "test": "Cytotoxic action on NCI-H1975 cells (WST-8, 96 hr)", "format": "cell-based", "conditions": "NCI-H1975, 96 hr", "description": "(§1) The cytotoxic action of the compound of the present invention against human cancer cells was evaluated in vitro. In this experiment, (+)-JQ1 (Nature volume 468, pages 1067-1073 (23 Dec. 2010)) known to have an inhibitory activity on the binding of BRD4 protein and a ligand therefor was used as a positive control drug. Respective cells were suspended in 10% FBS/RPMI1640, seeded in a 96 well plate and cultured at 5% CO2, 37° C. overnight. A test compound dissolved in DMSO was diluted with 10% FBS/RPMI1640 and added and the cells were further cultured for 96 hr. After culturing, the viable cell number was measured using a cell number measurement WST-8 kit (Kishida Chemical Co., Ltd.). As a control, the measurement was performed under conditions free of the test compound. The cytotoxic activity of the compound of the present invention against human prostate cancer LNCaP cells is shown in IC50 value in Table 1. The IC50 value is a concentration of the compound showing 50% cell survival rate when the cell survival rate thereof under compound untreated condition is 100%. It was calculated from the straight line connecting the cell survival rate at two points enclosing the 50% cell survival rate and the compound concentration. […]"}, "[2]": {"tested_on": "human bile duct cancer HuCCT1 cell", "test": "Cytotoxic action on HuCCT1 cells (WST-8, 96 hr)", "format": "cell-based", "conditions": "HuCCT-1, HuCCT1, 96 hr", "description": "as §1"}, "BRD4 protein": {"target": "BRD4 protein (Homo sapiens (Human), UniProt O60885)", "test": "BRD4 protein degradation inducing action in LNCaP cells (immunofluorescence, 6 hr)", "format": "cell-based", "conditions": "anti-BRD4 fluorescence intensity", "in_short": "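Read-out is BRD4 immunofluorescence intensity (560/572 nm) after 6 hr compound treatment of LNCaP cells in 10% FBS/RPMI1640, with fixation, permeabilization and anti-BRD4 staining. Linear interpolation between the two concentrations flanking 50% of untreated intensity gives DC50.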"}, "[3]": {"tested_on": "human large cell lung cancer NCI-H460 cell", "test": "Cytotoxic action on NCI-H460 cells (WST-8, 96 hr)", "format": "cell-based", "conditions": "NCI-H460, 96 hr", "description": "as §1"}, "[4]": {"test": "Maximum tolerated dose in rats (single tail vein administration)", "conditions": "rat, in vivo, intravenous, male CD (SD) rats", "description": "The maximum tolerated dose (MTD) in rats was determined for the compound of the present invention."}, "[5]": {"tested_on": "human glioma U-87 MG cell", "test": "Cytotoxic action on U-87 MG cells (WST-8, 96 hr)", "format": "cell-based", "description": "as §1"}, "[6]": {"tested_on": "human small cell lung cancer NCI-H82 cell", "test": "Cytotoxic action on NCI-H82 cells (WST-8, 96 hr)", "format": "cell-based", "conditions": "NCI-H82, 96 hr", "description": "as §1"}, "[7]": {"tested_on": "human diffuse large B-cell lymphoma SU-DHL-6 cell", "test": "Cytotoxic action on SU-DHL-6 cells (WST-8, 96 hr)", "format": "cell-based", "conditions": "SU-DHL-6, 96 hr", "description": "as §1"}, "MDA-MB-436 w/o2 cells": {"tested_on": "MDA-MB-436 w/o2 cells", "test": "Cytotoxic action on MDA-MB-436 w/o2 cells that acquired resistance to conventional BRD4 degraders (WST-8, 96 hr)", "format": "cell-based, human", "description": "The cytotoxic action of the compound of the present invention against cancer cells that acquired resistance to conventional BRD4 protein degradation inducing agents was evaluated in vitro. In this experiment, ARV-771 (Proc Natl Acad Sci USA. volume 113, pages 7124-7129 (28 Jun. 2016)) and MZ1 (ACS Chem Biol. Volume 10, pages 1770-1777 (21 Aug. 2015)), in which a ligand for VHL and BRD4 protein inhibitor are linked, were used as a conventional BRD4 protein degradation inducing agent serving as a comparison control. Human breast cancer MDA-MB-436 cells and MDA-MB-436 cells that acquired resistance to conventional BRD4 protein degradation inducing agents (MDA-MB-436 w/o2 cells) were suspended in 10% FBS/RPMI1640, seeded in a 96 well plate and cultured at 5% CO2, 37° C. overnight. A test compound dissolved in DMSO was diluted with 10% FBS/RPMI1640 and added and the cells were further cultured for 96 hr. After culturing, the viable cell number was measured using a cell number measurement WST-8 kit (Kishida Chemical Co., Ltd.). As a control, the measurement was performed under conditions free of the test compound. The cytotoxic activity of the compound of the present invention against each cell is shown in IC50 value in Table 4. The IC50 value is a concentration of the compound showing 50% cell survival rate when the cell survival rate thereof under compound untreated condition is 100%. It was calculated from the straight line connecting the cell survival rate at two points enclosing the 50% cell survival rate and the compound concentration. In addition, the tolerance (fold) was calculated by dividing the IC50 value in MDA-MB-436 w/o2 cells by the IC50 value in MDA-MB-436 cells."}, "[8]": {"tested_on": "human prostate cancer LNCaP cells", "test": "Cytotoxic action on LNCaP cells (WST-8, 96 hr)", "format": "cell-based", "conditions": "96 hr culture", "in_short": "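Cells were seeded in 10% FBS/RPMI1640 and cultured overnight at 37° C, 5% CO2, then exposed to compound (DMSO stock diluted in medium) for 96 hr. Viable cell number was measured with WST-8. IC50 is the concentration giving 50% survival versus untreated cells, interpolated linearly between the two bracketing points.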"}},
  "data": [
    {"smiles": "COC(=O)C[C@@H]1N=C(c2ccc(-c3ccc(C(=O)NCc4ccc(S(=O)(=O)Nc5ccc(C)c6c(C#N)c[nH]c56)cc4)cc3)cc2)c2c(sc(C)c2C)-n2c(C)nnc21", "note": "[Example 1, methyl [(6S)-4-{4′-[({4-[(3-cyano-4-methyl-1H-indol-7-yl)sulfamoyl]phenyl}methyl)carbamoyl][1,1′-biphenyl]-4-yl}-2,3,9-trimethyl-6H-thieno[3,2-f][1,2,4]triazolo[4,3-a][1,4]diazepin-6-yl]acetate]", "values": [
      {"measurement": "IC50", "setting": "[1]", "value": 3.6, "unit": "nM"},
      {"measurement": "IC50", "setting": "[2]", "value": 26, "unit": "nM"},
      {"measurement": "DC50", "setting": "BRD4 protein", "value": 0.15, "unit": "nM"},
      {"measurement": "IC50", "setting": "[3]", "value": 28, "unit": "nM"},
      {"measurement": "MTD", "setting": "[4]", "value": "> 10", "unit": "mg/kg"},
      {"measurement": "IC50", "setting": "[5]", "value": 6, "unit": "nM"},
      {"measurement": "IC50", "setting": "[6]", "value": 21, "unit": "nM"},
      {"measurement": "IC50", "setting": "[7]", "value": 0.44, "unit": "nM"},
      {"measurement": "IC50", "setting": "MDA-MB-436 w/o2 cells; Homo sapiens, MDA-MB-436 w/o2 cells, 96 hr", "value": 0.51, "unit": "nM"},
      {"measurement": "resistance", "setting": "MDA-MB-436 w/o2 cells; IC50 in MDA-MB-436 w/o2 cells divided by IC50 in MDA-MB-436 cells", "value": 1.3, "unit": "fold"},
      {"measurement": "IC50", "setting": "[8]", "value": 0.14, "unit": "nM"}
    ]}
  ]
}
